Target: T1, P2X7 (UniProt Q99572)
T1 sequence (Q99572 1-595): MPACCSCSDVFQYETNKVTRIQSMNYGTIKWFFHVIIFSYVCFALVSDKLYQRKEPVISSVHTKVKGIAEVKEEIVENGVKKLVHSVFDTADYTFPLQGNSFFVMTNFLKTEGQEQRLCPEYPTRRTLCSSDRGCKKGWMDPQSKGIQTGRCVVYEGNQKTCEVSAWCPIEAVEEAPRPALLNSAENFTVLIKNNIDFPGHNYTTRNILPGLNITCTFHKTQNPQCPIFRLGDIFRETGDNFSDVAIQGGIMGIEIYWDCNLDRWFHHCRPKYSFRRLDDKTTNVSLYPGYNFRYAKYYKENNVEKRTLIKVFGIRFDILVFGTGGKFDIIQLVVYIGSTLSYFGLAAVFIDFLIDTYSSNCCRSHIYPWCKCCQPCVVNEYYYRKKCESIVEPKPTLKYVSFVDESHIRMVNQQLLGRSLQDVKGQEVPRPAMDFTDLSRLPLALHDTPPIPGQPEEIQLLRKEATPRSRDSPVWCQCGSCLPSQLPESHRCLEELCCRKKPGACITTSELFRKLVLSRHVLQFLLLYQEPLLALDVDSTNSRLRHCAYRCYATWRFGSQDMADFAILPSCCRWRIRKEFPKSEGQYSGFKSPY
Experiment: P2X7 activity of Table 1
Format: cell-based
Settings: pIC50 values for P2X7
Outline: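 FLIPR calcium flux with fluo-3 in 1321N1 cells expressing human P2X7 and HEK293 cells expressing rat P2X7, in HBSS with 2 mM CaCl2 and 2.5 mM probenecid. Antagonist pre-incubated 20 min at room temperature, then BzATP added (100 μM human, 5 μM rat). Peak response over 5 min normalised to 5 μM ionomycin.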

SMILES | pIC50
Cc1ccc(-c2cc(C)n(CCO)n2)cc1NC(=O)C1=CNC(=O)C[C@H]1c1cccc(F)c1 [Compound 69, (S)-4-(3-Fluoro-phenyl)-6-oxo-1,4,5,6-tetrahydro-pyridine-3-carboxylic acid {5-[1-(2-hydroxy-ethyl)-5-methyl-1H-pyrazol-3-yl]-2-methyl-phenyl}-amide] | 7.92
Cc1ccc(-c2cc(C)n(CCO)n2)cc1NC(=O)C1=CN(C)C(=O)C[C@H]1c1cccc(F)c1 [Compound 70, (S)-4-(3-Fluoro-phenyl)-1-methyl-6-ox-1,4,5,6-tetrahydro-pyridine-3-carboxylic acid {5-[1-(2-hydroxy-ethyl)-5-methyl-1H-pyrazol-3-yl]-2-methyl-phenyl}-amide] | 7.72
Cc1ccc(-c2ccnn(C)c2=O)cc1NC(=O)C1=CNC(=O)C[C@H]1c1ccc(F)cc1 [Compound 71, (S)-4-(4-Fluoro-phenyl)-6-oxo-1,4,5,6-tetrahydro-pyridine-3-carboxylic acid [2-methyl-5-(2-methyl-3-oxo-2,3-dihydro-pyridazin-4-yl)-phenyl]-amide] | 8.395
Cc1ccc(-c2ccn[nH]c2=O)cc1NC(=O)C1=CN(C)C(=O)C[C@H]1c1ccc(F)cc1 [Compound 72, (S)-4-(4-Fluoro-phenyl)-1-methyl-6-oxo-1,4,5,6-tetrahydro-pyridine-3-carboxylic acid [2-methyl-5-(3-oxo-2,3-dihydro-pyridazin-4-yl)-phenyl]-amide] | 7.8367
Cc1ccc(-c2cc(C)n(C[C@@H](C)O)n2)cc1NC(=O)C1=CN(C)C(=O)C[C@H]1c1ccc(F)cc1 [Compound 73, (S)-4-(4-Fluoro-phenyl)-1-methyl-6-oxo-1,4,5,6-tetrahydro-pyridine-3-carboxylic acid {5-[1-((R)-2-hydroxy-propyl)-5-methyl-1H-pyrazol-3-yl]-2-methyl-phenyl}-amide] | 7.255
Cc1ccc(-c2cc(C)n(C[C@H](C)O)n2)cc1NC(=O)C1=CN(C)C(=O)C[C@H]1c1ccc(F)cc1 [Compound 74, (S)-4-(4-Fluoro-phenyl)-1-methyl-6-oxo-1,4,5,6-tetrahydro-pyridine-3-carboxylic acid {5-[1-((S)-2-hydroxy-propyl)-5-methyl-1H-pyrazol-3-yl]-2-methyl-phenyl}-amide] | 7.47
COC[C@H](O)Cn1nc(-c2ccc(C)c(NC(=O)C3=CNC(=O)C[C@H]3c3ccc(F)cc3)c2)cc1C [Compound 75, (S)-4-(4-Fluoro-phenyl)-6-oxo-1,4,5,6-tetrahydro-pyridine-3-carboxylic acid {5-[1-((R)-2-hydroxy-3-methoxy-propyl)-5-methyl-1H-pyrazol-3-yl]-2-methyl-phenyl}-amide] | 7.72
COC[C@H](O)Cn1nc(-c2ccc(C)c(NC(=O)C3=CN(C)C(=O)C[C@H]3c3ccc(F)cc3)c2)cc1C [Compound 76, (S)-4-(4-Fluoro-phenyl)-1-methyl-6-oxo-1,4,5,6-tetrahydro-pyridine-3-carboxylic acid {5-[1-((R)-2-hydroxy-3-methoxy-propyl)-5-methyl-1H-pyrazol-3-yl]-2-methyl-phenyl}-amide] | 7.45
COC[C@H](O)Cn1c(=O)cnn(-c2ccc(C)c(NC(=O)C3=CN(C)C(=O)C[C@H]3c3ccc(F)cc3)c2)c1=O [Compound 77, (S)-4-(4-Fluoro-phenyl)-1-methyl-6-oxo-1,4,5,6-tetrahydro-pyridine-3-carboxylic acid {5-[4-((R)-2-hydroxy-3-methoxy-propyl)-3,5-dioxo-4,5-dihydro-3H-[1,2,4]triazin-2-yl]-2-methyl-phenyl}-amide] | 7.5367
Cc1ccc(=O)n(-c2ccc(C)c(NC(=O)C3=CNC(=O)C[C@H]3c3ccc(F)cc3)c2)n1 [Compound 78, (S)-4-(4-Fluoro-phenyl)-6-oxo-1,4,5,6-tetrahydro-pyridine-3-carboxylic acid [2-methyl-5-(3-methyl-6-oxo-6H-pyridazin-1-yl)-phenyl]-amide] | 7.31
Cc1cncc(-c2ccc(C)c(NC(=O)C3=CNC(=O)C[C@H]3c3ccc(F)cc3)c2)n1 [Compound 79, (S)-4-(4-Fluoro-phenyl)-6-oxo-1,4,5,6-tetrahydro-pyridine-3-carboxylic acid [2-methyl-5-(6-methyl-pyrazin-2-yl)-phenyl]-amide] | 6.58
Cc1ccnc(-c2ccc(C)c(NC(=O)C3=CNC(=O)C[C@H]3c3ccc(F)cc3)c2)n1 [Compound 80, (S)-4-(4-Fluoro-phenyl)-6-oxo-1,4,5,6-tetrahydro-pyridine-3-carboxylic acid [2-methyl-5-(4-methyl-pyrimidin-2-yl)-phenyl]-amide] | 7.315
Cc1ccc(-c2ccnn(C)c2=O)cc1NC(=O)C1=CN(C)C(=O)C[C@H]1c1ccc(F)cc1 [Compound 81, (S)-4-(4-Fluoro-phenyl)-1-methyl-6-oxo-1,4,5,6-tetrahydro-pyridine-3-carboxylic acid [2-methyl-5-(2-methyl-3-oxo-2,3-dihydro-pyridazin-4-yl)-phenyl]-amide] | 7.94
Cc1ccc(-c2cncc(=O)[nH]2)cc1NC(=O)C1=CNC(=O)C[C@H]1c1ccc(F)cc1 [Compound 82, (S)-4-(4-Fluoro-phenyl)-6-oxo-1,4,5,6-tetrahydro-pyridine-3-carboxylic acid [2-methyl-5-(6-oxo-1,6-dihydro-pyrazin-2-yl)-phenyl]-amide] | 5.395
Cc1ccc(-c2cc(C)n(CC(=O)O)n2)cc1NC(=O)C1=CNC(=O)C[C@H]1c1ccc(F)cc1 [Compound 83, [3-(3-{[(S)-4-(4-Fluoro-phenyl)-6-oxo-1,4,5,6-tetrahydro-pyridine-3-carbonyl]-amino}-4-methyl-phenyl)-5-methyl-pyrazol-1-yl]-acetic acid] | 6.335
Cc1ccc(-c2ccn(CCO)n2)cc1NC(=O)C1=CNC(=O)C[C@H]1c1ccc(F)cc1 [Compound 84, (S)-4-(4-Fluoro-phenyl)-6-oxo-1,4,5,6-tetrahydro-pyridine-3-carboxylic acid {5-[1-(2-hydroxy-ethyl)-1H-pyrazol-3-yl]-2-methyl-phenyl}-amide] | 7.53
Cc1ccc(-c2cc(C)n(CCO)n2)cc1NC(=O)C1=CNC(=O)CC1c1ccc(F)c(F)c1 (stereo not drawn) [Compound 85, 4-(3,4-Difluoro-phenyl)-6-oxo-1,4,5,6-tetrahydro-pyridine-3-carboxylic acid {5-[1-(2-hydroxy-ethyl)-5-methyl-1H-pyrazol-3-yl]-2-methyl-phenyl}-amide] | 7.375

Results, then the compound that gave them:

pIC50 | SMILES
7.62 | Cc1ccc(-c2ccnn(C)c2=O)cc1NC(=O)C1=CN(C)C(=O)C[C@H]1c1cccc(F)c1 [Compound 86, (S)-4-(3-Fluoro-phenyl)-1-methyl-6-oxo-1,4,5,6-tetrahydro-pyridine-3-carboxylic acid [2-methyl-5-(2-methyl-3-oxo-2,3-dihydro-pyridazin-4-yl)-phenyl]-amide]
7.884 | Cc1ccc(-c2ccn[nH]c2=O)cc1NC(=O)C1=CN(C)C(=O)C[C@H]1c1cccc(F)c1 [Compound 87, (S)-4-(3-Fluoro-phenyl)-1-methyl-6-oxo-1,4,5,6-tetrahydro-pyridine-3-carboxylic acid [2-methyl-5-(3-oxo-2,3-dihydro-pyridazin-4-yl)-phenyl]-amide]
7.53 | Cc1ccc(-n2ncccc2=O)cc1NC(=O)C1=CNC(=O)C[C@H]1c1cccc(F)c1 [Compound 89, (S)-4-(3-Fluoro-phenyl)-6-oxo-1,4,5,6-tetrahydro-pyridine-3-carboxylic acid [2-methyl-5-(6-oxo-6H-pyridazin-1-yl)-phenyl]-amide]
7.2 | COC[C@H](O)Cn1nc(-c2ccc(C)c(NC(=O)C3=CN(C)C(=O)C[C@H]3c3cccc(F)c3)c2)cc1C [Compound 90, (S)-4-(3-Fluoro-phenyl)-1-methyl-6-oxo-1,4,5,6-tetrahydro-pyridine-3-carboxylic acid {5-[1-((R)-2-hydroxy-3-methoxy-propyl)-5-methyl-1H-pyrazol-3-yl]-2-methyl-phenyl}-amide]
7.15 | COC[C@@H](O)Cn1nc(-c2ccc(C)c(NC(=O)C3=CNC(=O)C[C@H]3c3ccc(F)cc3)c2)cc1C [Compound 91, (S)-4-(4-Fluoro-phenyl)-6-oxo-1,4,5,6-tetrahydro-pyridine-3-carboxylic acid {5-[1-((S)-2-hydroxy-3-methoxy-propyl)-5-methyl-1H-pyrazol-3-yl]-2-methyl-phenyl}-amide]
6.615 | COC[C@@H](O)Cn1nc(-c2ccc(C)c(NC(=O)C3=CN(C)C(=O)C[C@H]3c3ccc(F)cc3)c2)cc1C [Compound 92, (S)-4-(4-Fluoro-phenyl)-1-methyl-6-oxo-1,4,5,6-tetrahydro-pyridine-3-carboxylic acid {5-[1-((S)-2-hydroxy-3-methoxy-propyl)-5-methyl-1H-pyrazol-3-yl]-2-methyl-phenyl}-amide]
7.5 | Cc1ccc(-c2ccnn(CCO)c2=O)cc1NC(=O)C1=CN(C)C(=O)C[C@H]1c1cccc(F)c1 [Compound 93, (S)-4-(3-Fluoro-phenyl)-1-methyl-6-oxo-1,4,5,6-tetrahydro-pyridine-3-carboxylic acid {5-[2-(2-hydroxy-ethyl)-3-oxo-2,3-dihydro-pyridazin-4-yl]-2-methyl-phenyl}-amide]
